In ChEMBL document CHEMBL1201862, “PubChem BioAssay data set” (2004):
Active and inactive are the calls of the source.

Columns and labels:
Protein RecA = molecular target: T1, Protein RecA (Mycobacterium tuberculosis, UniProt P9WHJ3); assay: Fluorescence Cell-Free Homogeneous Dose Retest to Identify Inhibitors of RecA-Intein Splicing Activity. [Related pubchem assays (depositor defined):AID2097, AID2223, AID489010, AID492950]; assay type: functional
T1 sequence (P9WHJ3 whole entry): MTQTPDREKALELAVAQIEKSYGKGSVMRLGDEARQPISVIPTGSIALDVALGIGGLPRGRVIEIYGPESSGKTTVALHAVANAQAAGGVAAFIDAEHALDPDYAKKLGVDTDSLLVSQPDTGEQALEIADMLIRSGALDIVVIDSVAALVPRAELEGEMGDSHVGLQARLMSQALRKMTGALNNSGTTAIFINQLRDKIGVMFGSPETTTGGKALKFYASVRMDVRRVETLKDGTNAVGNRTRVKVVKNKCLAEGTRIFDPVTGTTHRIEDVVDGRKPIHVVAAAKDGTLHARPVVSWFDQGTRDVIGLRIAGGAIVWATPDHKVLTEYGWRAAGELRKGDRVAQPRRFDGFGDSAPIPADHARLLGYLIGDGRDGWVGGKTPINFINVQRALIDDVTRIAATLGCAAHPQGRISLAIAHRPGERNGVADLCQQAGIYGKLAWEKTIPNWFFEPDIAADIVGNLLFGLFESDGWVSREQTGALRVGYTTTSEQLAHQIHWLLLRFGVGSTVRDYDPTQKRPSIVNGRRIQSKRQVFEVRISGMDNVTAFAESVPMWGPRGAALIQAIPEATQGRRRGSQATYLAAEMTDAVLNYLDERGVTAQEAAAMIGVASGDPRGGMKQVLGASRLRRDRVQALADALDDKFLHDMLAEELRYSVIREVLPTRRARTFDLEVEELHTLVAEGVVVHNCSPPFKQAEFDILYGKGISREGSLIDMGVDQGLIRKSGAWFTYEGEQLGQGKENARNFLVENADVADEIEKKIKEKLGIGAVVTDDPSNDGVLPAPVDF

CAAX prenyl protease 2 [1] = molecular target: T2, CAAX prenyl protease 2 (Saccharomyces cerevisiae S288c, UniProt Q03530); assay type: biochemical
T2 sequence (Q03530 whole entry): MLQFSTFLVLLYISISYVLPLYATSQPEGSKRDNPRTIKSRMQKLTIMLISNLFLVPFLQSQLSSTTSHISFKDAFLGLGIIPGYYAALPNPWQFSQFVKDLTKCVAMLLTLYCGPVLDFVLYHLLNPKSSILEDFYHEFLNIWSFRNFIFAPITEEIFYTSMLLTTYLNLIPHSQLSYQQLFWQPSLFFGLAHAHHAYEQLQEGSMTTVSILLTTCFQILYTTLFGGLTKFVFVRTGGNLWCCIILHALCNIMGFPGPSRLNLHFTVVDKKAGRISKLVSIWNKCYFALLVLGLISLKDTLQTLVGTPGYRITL

CAAX prenyl protease 1 = CAAX prenyl protease 1 (Saccharomyces cerevisiae S288c, UniProt P47154); assay: yeast CAAX protease Ste24 inhibition – biochemical, S. cerevisiae, plate reader, cherry-pick, dose response (AID 488815)
CAAX prenyl protease 1, sequence (P47154 whole entry): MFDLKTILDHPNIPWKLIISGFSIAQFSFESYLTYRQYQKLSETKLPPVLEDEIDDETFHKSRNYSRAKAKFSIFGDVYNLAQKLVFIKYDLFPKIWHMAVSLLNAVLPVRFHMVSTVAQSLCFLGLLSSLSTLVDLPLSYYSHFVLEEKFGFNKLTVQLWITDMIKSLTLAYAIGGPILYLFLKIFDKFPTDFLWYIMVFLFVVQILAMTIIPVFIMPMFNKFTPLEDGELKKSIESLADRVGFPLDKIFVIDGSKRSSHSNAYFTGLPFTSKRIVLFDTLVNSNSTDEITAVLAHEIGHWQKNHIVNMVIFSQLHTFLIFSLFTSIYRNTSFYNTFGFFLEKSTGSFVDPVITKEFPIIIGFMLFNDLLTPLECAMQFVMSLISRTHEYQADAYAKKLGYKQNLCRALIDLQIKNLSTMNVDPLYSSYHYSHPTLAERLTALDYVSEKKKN

Trypsin = Trypsin (Sus scrofa, UniProt P00761); assay: trypsin protease activity blockade – biochemical, quenched peptide fluorescence, cherry-pick, selectivity assay for Rce1 protease inhibitor project, dose response (AID 488789)
Trypsin, sequence (P00761 whole entry): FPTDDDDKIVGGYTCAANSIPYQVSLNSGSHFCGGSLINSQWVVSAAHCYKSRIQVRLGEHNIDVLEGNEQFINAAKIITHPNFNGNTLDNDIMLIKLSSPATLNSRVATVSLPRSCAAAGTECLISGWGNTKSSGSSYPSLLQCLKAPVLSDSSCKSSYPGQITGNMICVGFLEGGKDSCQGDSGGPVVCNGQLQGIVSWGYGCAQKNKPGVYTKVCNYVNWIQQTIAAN

Coagulation factor XII = molecular target: T3, Coagulation factor XII (Homo sapiens, UniProt P00748); assay: activated coagulation factor XII inhibitor potency, concentration-effect curve, cell-free (AID 716); assay type: functional
T3 sequence (P00748 whole entry): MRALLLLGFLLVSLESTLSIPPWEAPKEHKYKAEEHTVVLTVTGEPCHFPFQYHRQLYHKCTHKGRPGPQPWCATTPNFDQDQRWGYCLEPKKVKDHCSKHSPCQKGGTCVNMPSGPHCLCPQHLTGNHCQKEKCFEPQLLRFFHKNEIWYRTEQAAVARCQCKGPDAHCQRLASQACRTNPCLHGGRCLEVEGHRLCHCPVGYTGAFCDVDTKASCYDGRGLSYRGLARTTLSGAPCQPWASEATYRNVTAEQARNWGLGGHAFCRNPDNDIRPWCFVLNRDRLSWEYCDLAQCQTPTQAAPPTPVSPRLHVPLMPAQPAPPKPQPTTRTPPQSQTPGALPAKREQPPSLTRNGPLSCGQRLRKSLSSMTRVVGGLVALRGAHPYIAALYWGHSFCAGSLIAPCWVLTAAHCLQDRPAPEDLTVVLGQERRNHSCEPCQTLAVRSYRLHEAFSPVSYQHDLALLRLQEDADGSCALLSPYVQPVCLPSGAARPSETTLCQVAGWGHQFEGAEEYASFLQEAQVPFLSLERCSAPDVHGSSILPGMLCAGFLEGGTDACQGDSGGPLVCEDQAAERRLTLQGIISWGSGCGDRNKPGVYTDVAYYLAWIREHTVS

CAAX prenyl protease 2 [2] = molecular target: T4, CAAX prenyl protease 2 (Homo sapiens, UniProt Q9Y256); assay: inhibition of Ras-converting CAAX protease Rce1 – biochemical, yeast membranes, quenched-peptide fluorescence, cherry-pick, dose response (AID 588849)
T4 sequence (Q9Y256 whole entry): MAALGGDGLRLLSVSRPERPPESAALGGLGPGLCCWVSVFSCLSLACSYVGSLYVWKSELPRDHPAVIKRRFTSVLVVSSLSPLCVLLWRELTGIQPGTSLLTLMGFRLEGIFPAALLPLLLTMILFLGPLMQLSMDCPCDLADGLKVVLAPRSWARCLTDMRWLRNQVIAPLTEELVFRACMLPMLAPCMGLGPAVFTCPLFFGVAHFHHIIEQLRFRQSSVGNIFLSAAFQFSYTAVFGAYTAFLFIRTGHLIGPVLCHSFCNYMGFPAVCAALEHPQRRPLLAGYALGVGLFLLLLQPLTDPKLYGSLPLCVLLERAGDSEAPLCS

[3] = molecular target: T5, Replicative DNA helicase DnaB (Mycobacterium tuberculosis, UniProt P9WMR3); assay: DnaB intein splicing inhibitors, dose response, biochemical, cell-free fluorescence (AID 449749); assay type: functional
T5 sequence (P9WMR3 whole entry): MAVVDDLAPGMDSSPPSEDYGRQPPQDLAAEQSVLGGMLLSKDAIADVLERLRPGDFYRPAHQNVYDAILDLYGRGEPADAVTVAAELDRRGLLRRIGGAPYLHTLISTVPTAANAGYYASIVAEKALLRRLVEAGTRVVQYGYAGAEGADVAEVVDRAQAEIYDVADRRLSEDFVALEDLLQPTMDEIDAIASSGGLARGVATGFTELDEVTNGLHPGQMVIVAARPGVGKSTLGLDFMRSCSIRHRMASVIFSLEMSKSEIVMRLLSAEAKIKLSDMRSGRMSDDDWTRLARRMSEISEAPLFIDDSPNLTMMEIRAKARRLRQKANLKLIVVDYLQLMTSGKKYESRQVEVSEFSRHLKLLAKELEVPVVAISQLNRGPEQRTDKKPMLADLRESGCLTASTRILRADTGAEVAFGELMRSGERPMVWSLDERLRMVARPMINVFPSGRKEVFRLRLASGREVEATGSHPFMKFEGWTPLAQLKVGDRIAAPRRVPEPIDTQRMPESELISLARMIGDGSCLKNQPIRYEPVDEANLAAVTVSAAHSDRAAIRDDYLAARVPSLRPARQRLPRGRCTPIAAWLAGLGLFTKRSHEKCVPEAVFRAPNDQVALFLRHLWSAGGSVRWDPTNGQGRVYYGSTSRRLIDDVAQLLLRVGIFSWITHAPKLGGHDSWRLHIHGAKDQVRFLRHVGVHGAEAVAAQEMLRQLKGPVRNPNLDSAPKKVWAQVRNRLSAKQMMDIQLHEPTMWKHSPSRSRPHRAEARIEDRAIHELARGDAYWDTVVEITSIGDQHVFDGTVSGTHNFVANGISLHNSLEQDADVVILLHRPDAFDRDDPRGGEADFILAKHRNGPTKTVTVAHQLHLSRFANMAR

H9c2 = assay: cells; assay type: functional, cell-based; conditions: Rattus norvegicus, H9c2, Myocardium;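 also: confirmatory concentration-response retest of ultra-high-throughput screening hits for modulation of myocardial damage; cell death induced by hydrogen peroxide oxidative stress; compound pretreatment for 60 min then peroxide exposure for 2 h; potency is for protecting the cells against peroxide damage rather than for killing them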
[4] = Luminescence Cell-Based Dose Response HTS to Identify Inhibitors of 5'UTR Stem-Loop Driven Prion Protein mRNA Translation in H4 Neuroglioblastoma Cells. [Related pubchem assays: 1827 (Project Summary), 1813 (Primary HTS)]; assay type: functional
[5] = alpha-synuclein stem-loop luciferase translation blockers – H4 neuroglioma cells, luminescence, confirmation (AID 1988); assay type: functional, cell-based
[6] = restored growth of temperature-sensitive Burl-1 yeast – whole organism, S. cerevisiae, Burl-1 ts mutant, luminescence, counter-screen for SUMOylation pathway inhibitor project, dose response (AID 463199); assay type: functional
[7] = luciferase reporter signal suppression in cells – H4 neuroglioma cells, luminescence, dose response (AID 1990); assay type: functional, cell-based
[8] = molecular target: T6, Tyrosine-protein phosphatase non-receptor type 22 (Homo sapiens, UniProt Q9Y2R2); assay: inhibition of lymphoid tyrosine phosphatase LYP – biochemical, pCAP fluorogenic substrate, fluorescence, set 3, SAR follow-up (AID 449727); assay type: functional
T6 sequence (Q9Y2R2 whole entry): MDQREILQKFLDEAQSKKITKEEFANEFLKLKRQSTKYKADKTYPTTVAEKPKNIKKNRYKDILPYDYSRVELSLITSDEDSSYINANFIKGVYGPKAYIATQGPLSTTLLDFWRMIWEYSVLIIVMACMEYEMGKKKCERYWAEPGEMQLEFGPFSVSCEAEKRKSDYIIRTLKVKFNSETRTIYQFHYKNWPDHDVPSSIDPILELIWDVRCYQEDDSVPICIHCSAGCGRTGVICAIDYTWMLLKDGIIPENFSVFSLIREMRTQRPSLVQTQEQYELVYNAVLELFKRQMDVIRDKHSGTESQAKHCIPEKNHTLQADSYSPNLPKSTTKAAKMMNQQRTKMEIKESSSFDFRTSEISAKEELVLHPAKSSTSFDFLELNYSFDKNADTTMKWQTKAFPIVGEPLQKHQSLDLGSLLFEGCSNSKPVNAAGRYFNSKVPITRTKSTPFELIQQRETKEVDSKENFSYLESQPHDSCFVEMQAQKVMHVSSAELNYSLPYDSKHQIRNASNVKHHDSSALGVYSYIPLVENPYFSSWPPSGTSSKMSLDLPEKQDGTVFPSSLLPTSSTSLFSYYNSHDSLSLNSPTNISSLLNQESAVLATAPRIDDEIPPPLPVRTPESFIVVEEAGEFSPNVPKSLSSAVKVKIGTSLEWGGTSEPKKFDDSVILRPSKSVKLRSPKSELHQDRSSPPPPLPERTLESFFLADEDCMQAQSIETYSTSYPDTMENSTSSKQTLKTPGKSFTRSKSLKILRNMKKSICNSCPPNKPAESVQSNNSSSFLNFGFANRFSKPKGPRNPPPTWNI

[9] = molecular target: T7, G-protein coupled receptor 55 (Homo sapiens, UniProt Q9Y2T6); assay: blockers of GPR55 signalling, imaged – imaging, image-based, counter-screen for GPR35 antagonist project, SAR follow-up (AID 2397); assay type: functional
T7 sequence (Q9Y2T6 whole entry): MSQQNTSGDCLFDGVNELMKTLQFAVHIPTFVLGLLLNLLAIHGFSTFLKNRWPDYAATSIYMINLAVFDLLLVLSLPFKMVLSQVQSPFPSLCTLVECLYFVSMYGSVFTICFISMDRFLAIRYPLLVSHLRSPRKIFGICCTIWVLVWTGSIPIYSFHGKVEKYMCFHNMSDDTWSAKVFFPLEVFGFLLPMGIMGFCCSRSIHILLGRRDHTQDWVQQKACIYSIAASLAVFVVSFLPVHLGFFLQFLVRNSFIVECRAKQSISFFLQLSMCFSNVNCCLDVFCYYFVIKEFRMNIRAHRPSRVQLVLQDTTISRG

[10] = molecular target: T8, G-protein coupled receptor 35 (Homo sapiens, UniProt Q9HC97); assay: SAR Analysis for the identification of Selective Antagonists of ERK1/2 Activity in GPR35-Overexpressing U2OS Cells. [Related pubchem assays: 2079, 2058 ]; assay type: functional, cell-based
T8 sequence (Q9HC97 whole entry): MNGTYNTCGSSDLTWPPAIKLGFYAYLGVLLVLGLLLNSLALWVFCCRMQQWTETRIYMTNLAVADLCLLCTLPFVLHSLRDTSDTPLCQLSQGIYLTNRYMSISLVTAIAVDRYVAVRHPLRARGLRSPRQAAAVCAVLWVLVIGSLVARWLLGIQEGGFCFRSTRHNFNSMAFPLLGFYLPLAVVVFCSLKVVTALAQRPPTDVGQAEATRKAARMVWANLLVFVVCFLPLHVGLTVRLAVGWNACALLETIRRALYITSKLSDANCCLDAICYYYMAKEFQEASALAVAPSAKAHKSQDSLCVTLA

[11] = molecular target: T6, Tyrosine-protein phosphatase non-receptor type 22; assay: SAR LYP1 Fluorescent Assay using OMFP substrate for In Vitro dose response studies - Set 3. [Related pubchem assays (depositor defined):AID1779, AID1784, AID2140, AID2686]; assay type: functional
[12] = molecular target: T7, G-protein coupled receptor 55; assay: selective activators of receptor GPR55 – imaging, U2OS cells, beta-arrestin-GFP redistribution, primary screen (AID 1961); assay type: functional
[13] = molecular target: T8, G-protein coupled receptor 35; assay: inhibition of zaprinast-stimulated GPR35 beta-arrestin translocation – imaging, U2OS, beta-arrestin-GFP, zaprinast agonist, primary screen (AID 2058); assay type: functional;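 also: antagonist potency meaning inhibition of agonist-induced arrestin redistribution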
[14] = molecular target: T9, Tyrosine-protein phosphatase non-receptor type 7 (Homo sapiens, UniProt P35236); assay: inhibition of hematopoietic tyrosine phosphatase HePTP – biochemical, set 2, SAR follow-up (AID 449736); assay type: functional
T9 sequence (P35236 whole entry): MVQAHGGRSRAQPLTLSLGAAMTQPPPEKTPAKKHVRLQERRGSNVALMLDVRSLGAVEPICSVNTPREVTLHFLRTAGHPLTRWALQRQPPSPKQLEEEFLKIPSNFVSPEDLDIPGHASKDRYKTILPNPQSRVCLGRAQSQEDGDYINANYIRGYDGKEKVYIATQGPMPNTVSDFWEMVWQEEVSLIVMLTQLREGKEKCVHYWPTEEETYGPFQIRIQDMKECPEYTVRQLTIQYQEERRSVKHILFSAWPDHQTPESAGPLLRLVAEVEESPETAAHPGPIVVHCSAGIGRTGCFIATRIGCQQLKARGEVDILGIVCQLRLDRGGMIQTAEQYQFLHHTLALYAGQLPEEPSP

[15] = molecular target: Tyrosine-protein phosphatase non-receptor type 12 (Homo sapiens, UniProt Q05209); assay: SAR Selectivity Analysis of small molecule inhibitors of PEST using pCAP in a fluorescence assay. [Related pubchem assays (depositor defined):AID1779, AID1784, AID2135]; assay type: functional
Tyrosine-protein phosphatase non-receptor type 12, sequence (Q05209 whole entry): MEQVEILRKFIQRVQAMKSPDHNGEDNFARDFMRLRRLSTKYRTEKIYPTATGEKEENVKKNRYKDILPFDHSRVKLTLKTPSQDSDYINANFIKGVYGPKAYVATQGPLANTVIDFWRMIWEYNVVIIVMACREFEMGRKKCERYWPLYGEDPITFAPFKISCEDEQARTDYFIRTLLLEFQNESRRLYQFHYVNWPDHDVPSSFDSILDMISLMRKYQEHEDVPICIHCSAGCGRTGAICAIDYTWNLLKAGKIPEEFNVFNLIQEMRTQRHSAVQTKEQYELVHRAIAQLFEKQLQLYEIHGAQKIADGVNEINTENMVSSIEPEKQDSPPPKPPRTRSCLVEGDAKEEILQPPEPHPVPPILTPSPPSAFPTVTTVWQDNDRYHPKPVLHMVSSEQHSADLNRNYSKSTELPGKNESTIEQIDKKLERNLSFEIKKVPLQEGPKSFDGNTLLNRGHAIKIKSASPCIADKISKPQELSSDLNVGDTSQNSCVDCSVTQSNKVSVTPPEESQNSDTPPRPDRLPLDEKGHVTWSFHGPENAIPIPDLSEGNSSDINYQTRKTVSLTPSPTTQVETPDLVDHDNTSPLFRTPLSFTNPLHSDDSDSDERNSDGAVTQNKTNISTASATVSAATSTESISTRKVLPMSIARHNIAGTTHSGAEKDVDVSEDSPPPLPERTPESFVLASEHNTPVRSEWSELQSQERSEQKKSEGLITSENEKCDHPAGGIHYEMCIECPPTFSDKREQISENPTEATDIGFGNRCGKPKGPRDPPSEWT

SUMO E1/E2 = SUMO E1/E2 (Homo sapiens, UniProt P63279+Q9UBE0+Q9UBT2); assay: SAR analysis of SUMOylation using HTRF in an in-Vitro dose response assay. [Related pubchem assays (depositor defined):AID2006, AID2011, AID2018, AID2069, AID2658]; assay type: functional
SUMO E1/E2, sequence (Q9UBE0 whole entry): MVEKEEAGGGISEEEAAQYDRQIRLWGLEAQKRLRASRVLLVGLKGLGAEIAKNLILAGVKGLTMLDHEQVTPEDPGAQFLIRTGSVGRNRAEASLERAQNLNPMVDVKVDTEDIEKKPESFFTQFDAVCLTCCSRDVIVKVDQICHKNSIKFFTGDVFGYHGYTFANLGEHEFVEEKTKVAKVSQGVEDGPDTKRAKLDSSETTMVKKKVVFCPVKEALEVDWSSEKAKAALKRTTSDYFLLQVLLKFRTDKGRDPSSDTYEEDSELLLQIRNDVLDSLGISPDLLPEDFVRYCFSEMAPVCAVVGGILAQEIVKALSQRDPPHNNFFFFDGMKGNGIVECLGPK
SUMO E1/E2, sequence (Q9UBT2 whole entry): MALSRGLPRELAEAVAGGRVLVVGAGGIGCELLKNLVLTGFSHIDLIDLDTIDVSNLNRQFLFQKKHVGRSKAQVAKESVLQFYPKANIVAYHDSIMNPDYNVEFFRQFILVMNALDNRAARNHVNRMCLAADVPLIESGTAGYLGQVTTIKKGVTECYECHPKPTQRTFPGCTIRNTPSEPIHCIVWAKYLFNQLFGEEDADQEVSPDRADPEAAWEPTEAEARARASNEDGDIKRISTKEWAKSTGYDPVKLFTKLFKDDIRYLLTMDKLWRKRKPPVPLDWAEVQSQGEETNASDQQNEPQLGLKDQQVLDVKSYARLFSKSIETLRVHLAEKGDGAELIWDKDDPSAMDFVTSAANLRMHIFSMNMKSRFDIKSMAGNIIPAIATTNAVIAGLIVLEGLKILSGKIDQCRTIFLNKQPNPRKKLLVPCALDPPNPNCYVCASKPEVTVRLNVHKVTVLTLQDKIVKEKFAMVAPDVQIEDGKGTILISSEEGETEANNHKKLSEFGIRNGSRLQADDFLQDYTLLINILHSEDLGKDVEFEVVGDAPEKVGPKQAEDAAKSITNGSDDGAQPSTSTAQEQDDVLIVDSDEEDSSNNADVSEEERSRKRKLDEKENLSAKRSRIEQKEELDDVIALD
SUMO E1/E2, sequence (P63279 whole entry): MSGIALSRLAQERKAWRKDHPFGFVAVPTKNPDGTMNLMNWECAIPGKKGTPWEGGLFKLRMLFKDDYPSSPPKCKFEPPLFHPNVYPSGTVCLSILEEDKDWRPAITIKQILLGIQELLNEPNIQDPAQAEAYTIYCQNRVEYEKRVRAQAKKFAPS

CC(C)C(=O)N1CCN(c2nc(-c3ccccc3)c3c(c2C#N)CCCC3)CC1
EC50 (Protein RecA): 38.4 µM (active) | AC50 (CAAX prenyl protease 2 [1]): 14.4 µM (active) | AC50 (CAAX prenyl protease 1): 6.09 µM (active) | AC50 (Trypsin): 1.74 µM (active) | IC50 (Coagulation factor XII): > 50 µM (inactive) | AC50 (CAAX prenyl protease 2 [2]): 7.27 µM (active) | AC50 [3]: 7.76 µM (active)

CCOC(=O)c1ccccc1NC(=O)CSc1ccc(-c2ccccn2)nn1
IC50 (H9c2): 5.14 µM (active) | EC50 [4]: > 120 µM (not active) | EC50 [5]: 10.8 µM (active) | AC50 [6]: 62.6 µM (active) | EC50 [7]: 11.7 µM (active)

Cc1ccc(/C=C2\SC(=S)N(CCCC(=O)Nc3cccc(C(=O)O)c3)C2=O)cc1
IC50 [8]: 39 µM (active) | IC50 [9]: > 32 µM (inactive) | IC50 [10]: 1.39 µM (active) | IC50 [11]: 30.2 µM (active) | EC50 [12]: 1.45 µM (active) | IC50 [13]: < 0.5 µM (active) | IC50 [14]: 2.79 µM (active) | IC50 [15]: 15.9 µM (active)

O=S(=O)(Nc1ccccc1F)c1ccc2c(c1)C1C=CCC1C(c1ccc(F)cc1)N2 (stereo unspecified)
IC50 (SUMO E1/E2): > 100 µM (inactive)
